Reference: PMC9635925, “Biological screening of a unique drug library targeting MRGPRX2” (Frontiers in Immunology, 2022)
Changes are numbered by the printed parent chain. Structures can show the parent of a compound that is named as a salt.

Experiments:
[1] = target: T1, MRGPRX2-WT (wild-type MRGPRX2 receptor) (Homo sapiens, UniProt Q96LB1); assay: Primary HTS, Ca2+ mobilization (fluorescence ratio, B-score) in HEK293-Gα15 cells stably expressing wild-type MRGPRX2; type: cell-based; conditions: 10 μM compound
T1 construct: expressed in transfected cells
T1 sequence (Q96LB1 1-330): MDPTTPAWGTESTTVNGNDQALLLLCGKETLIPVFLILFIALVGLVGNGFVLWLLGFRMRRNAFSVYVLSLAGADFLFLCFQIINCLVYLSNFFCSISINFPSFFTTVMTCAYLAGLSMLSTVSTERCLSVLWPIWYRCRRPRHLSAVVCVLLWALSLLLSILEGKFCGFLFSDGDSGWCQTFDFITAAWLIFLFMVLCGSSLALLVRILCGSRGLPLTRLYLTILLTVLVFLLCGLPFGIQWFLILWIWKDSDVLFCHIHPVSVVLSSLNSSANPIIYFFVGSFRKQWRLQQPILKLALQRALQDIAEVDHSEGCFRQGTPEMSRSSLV
Method: (§1) We performed an experimental HTS on the Johns Hopkins Drug Library, which includes 1,811 (57%) FDA-approved drugs among 3,456 total compounds (28% of all known drugs worldwide) ([15]). We performed the HTS at the Johns Hopkins University ChemBioCORE Facility and employed HEK293-Gα15 cell lines that stably expressed MRGPRX2 protein.
(§2) We utilized 10 μM compounds (each compound was tested in triplicate) and calculated the compound effect using the signal-to-background fluorescence ratio (see Supplementary Methods).
(§3) In the HTS, we determined MRGPRX2 activation by a Ca^2+ mobilization assay that recorded a fluorescence change by utilizing a Functional Drug Screening System (FDSS 6000; Hamamatsu); we evaluated the compound effect using the calculated fluorescence ratio. We further applied the B-score normalization, which provided robust corrections for variation in fluorescence ratio ([22]).
(§4) We performed an experimental high-throughput screening (HTS) on the Johns Hopkins Drug Library (JHDL), which includes 1,811 (57%) FDA-approved drugs among 3,456 total compounds (28% of all known drugs worldwide). The remaining compounds in JHDL are catalogued in one or more of the resources below: British Approved Names (BAN); Dénominations Communes Françaises (DCF); International Nonproprietary Names (INN); Japanese Adopted Names (JAN); MI (Merck Index); National Formulary drug name (NF); and United States Accepted Names (USAN). The JHU drug library is stocked in 96 well plates at 10 mM in 100% DMSO and stored at -80 °C. We used a final concentration of 10 uM for each compound and DMSO concentration of 0.1% (tested in triplicate). […] We evaluated compound effect using the calculated fluorescence ratio. We further calculated B-scores, which are a relative potency score similar to Z scores in that they are the ratio of an adjusted raw value in the numerator to a measure of variability in the denominator.

[2] = target: T2, MRGPRX2-MUT (MRGPRX2 N62S mutation) (Homo sapiens, UniProt Q96LB1, N62S); assay: Primary HTS, Ca2+ mobilization (fluorescence ratio, B-score) in HEK293-Gα15 cells stably expressing the MRGPRX2 N62S mutation; type: cell-based; conditions: for B-scores (MUT): 10 μM compound, MRGPRX2-MUT (N62S) cells; for Change of B-scores (%): 10 μM
T2 construct: expressed in transfected cells
T2 sequence (Q96LB1 1-330 N62S): T1 sequence (Q96LB1 1-330) with N62S
Method: as §1, §2, §3, §4

[3] = MRGPRX2-MUT in comparison to MRGPRX2-WT cells, Supplementary Table 1
[4] = MRGPRX2-MUT versus MRGPRX2-WT cells, Supplementary Table 2

CC(=O)c1ccc2c(c1)N(CCCN(C)C)c1ccccc1S2 [Acepromazine Maleate]
B-scores (WT) ([1]; Supplementary Table 1): 44.01
B-scores (WT) ([1]; Supplementary Table 2): 44.01
B-scores (MUT) ([2]; Supplementary Table 1): 28.97
B-scores (MUT) ([2]; Supplementary Table 2): 28.97
Change of B-scores (%) [2, 3]: -34.19%
Change of B-scores (%) [2, 4]: -34.19%

CC(=O)c1ccc2c(c1)N(CCCN(C)C)c1ccccc1S2 [Acepromazine]
B-scores (WT) ([1]; Supplementary Table 2): 22.99
B-scores (MUT) ([2]; Supplementary Table 2): 43.26
Change of B-scores (%) [2, 4]: 88.18%

CC(=O)OCC[N+](C)(C)C [Acetylcholine Chloride]
B-scores (WT) ([1]; Supplementary Table 1): 47.11
B-scores (WT) ([1]; Supplementary Table 2): 47.11
B-scores (MUT) ([2]; Supplementary Table 1): 65.23
B-scores (MUT) ([2]; Supplementary Table 2): 65.23
Change of B-scores (%) [2, 3]: 38.45%
Change of B-scores (%) [2, 4]: 38.45%

CC(=O)OCC[N+](C)(C)C [Acetylcholine]
B-scores (WT) ([1]; Supplementary Table 1): 23.36
B-scores (WT) ([1]; Supplementary Table 2): 23.36
B-scores (MUT) ([2]; Supplementary Table 1): 80.61
B-scores (MUT) ([2]; Supplementary Table 2): 80.61
Change of B-scores (%) [2, 3]: 245.01%
Change of B-scores (%) [2, 4]: 245.01%

Nc1ncnc2c1ncn2[C@@H]1O[C@H](CO)[C@@H](O)[C@H]1O [Adenosine]
B-scores (WT) ([1]; Supplementary Table 1): 35.61
B-scores (MUT) ([2]; Supplementary Table 1): 0.32
Change of B-scores (%) [2, 3]: -99.09%

CC(C)(C)NCC(O)c1ccc(O)c(CO)c1.CC(C)(C)NCC(O)c1ccc(O)c(CO)c1.O=S(=O)(O)O (stereo not shown) [Albuterol sulfate]
B-scores (WT) ([1]; Supplementary Table 2): 12.09
B-scores (MUT) ([2]; Supplementary Table 2): 2.96
Change of B-scores (%) [2, 4]: -75.51%

CCCCC(CC)CNC(=N)NC(=N)NCCCCCCNC(=N)NC(=N)NCC(CC)CCCC (stereo not shown) [Alexidine Hydrochloride]
B-scores (WT) ([1]; Supplementary Table 1): 30.77
B-scores (WT) ([1]; Table 1): 30.77
B-scores (MUT) ([2]; Supplementary Table 1): 1.68
B-scores (MUT) ([2]; Table 1): 1.68
Change of B-scores (%) [2, 3]: -94.54%
Change of B-scores (%) ([2]; MRGPRX2-MUT in comparison to MRGPRX2-WT cells, Table 1): -94.54%

CN(C)CCc1c[nH]c2ccc(CS(=O)(=O)N3CCCC3)cc12 [Almotriptan]
B-scores (WT) ([1]; Supplementary Table 1): 18.49
B-scores (MUT) ([2]; Supplementary Table 1): 2.98
Change of B-scores (%) [2, 3]: -83.88%

CCCCC[C@H](O)/C=C/[C@H]1[C@H](O)CC(=O)[C@@H]1CCCCCCC(=O)O [Alprostadil]
B-scores (WT) ([1]; Supplementary Table 1): 42.04
B-scores (MUT) ([2]; Supplementary Table 1): 11.08
Change of B-scores (%) [2, 3]: -73.65%

CN(C)CCC=C1c2ccccc2CCc2ccccc21 [Amitriptyline hydrochloride]
B-scores (WT) ([1]; Supplementary Table 2): 16.31
B-scores (MUT) ([2]; Supplementary Table 2): 1.83
Change of B-scores (%) [2, 4]: -88.77%

CCOC(=O)C1=C(COCCN)NC(C)=C(C(=O)OC)C1c1ccccc1Cl (stereo not shown) [Amlodipine Besylate]
B-scores (WT) ([1]; Supplementary Table 1): 31.57
B-scores (MUT) ([2]; Supplementary Table 1): 3.87
Change of B-scores (%) [2, 3]: -87.76%

COC(=O)C1=CCCN(C)C1 [Arecoline Hydrobromide]
B-scores (WT) ([1]; Supplementary Table 1): 28.78
B-scores (MUT) ([2]; Supplementary Table 1): 58.08
Change of B-scores (%) [2, 3]: 101.79%

CN1[C@@H]2CC[C@H]1C[C@@H](OC(=O)C(CO)c1ccccc1)C2 (stereo partly shown) [Atropine Sulfate Monohydrate]
B-scores (WT) ([1]; Supplementary Table 1): 24.16
B-scores (WT) ([1]; Supplementary Table 2): 24.16
B-scores (MUT) ([2]; Supplementary Table 1): 0.90
B-scores (MUT) ([2]; Supplementary Table 2): 0.9
Change of B-scores (%) [2, 3]: -96.27%
Change of B-scores (%) [2, 4]: -96.27%

CN1[C@@H]2CC[C@H]1C[C@@H](OC(=O)C(CO)c1ccccc1)C2 (stereo partly shown) [Atropine Sulfate]
B-scores (WT) ([1]; Supplementary Table 1): 41.43
B-scores (WT) ([1]; Supplementary Table 2): 41.43
B-scores (MUT) ([2]; Supplementary Table 2): -0.13
Change of B-scores (%) [2, 3]: -100.31%
Change of B-scores (%) [2, 4]: -100.31%

CN1[C@@H]2CC[C@H]1C[C@@H](OC(=O)C(CO)c1ccccc1)C2 (stereo partly shown) [Atropine]
B-scores (WT) ([1]; Supplementary Table 1): 18.59
B-scores (WT) ([1]; Supplementary Table 2): 18.59
B-scores (MUT) ([2]; Supplementary Table 2): -0.95
Change of B-scores (%) [2, 3]: -105.08%
Change of B-scores (%) [2, 4]: -105.08%
